Where “and” joins values, the source holds several entries; their conditions need not be identical. Identical values can stand only once.
Tests used:
Type in all cases: cell-based
[1] = target: T1, 320 non-olfactory GPCRs (Homo sapiens, UniProt P25089)
T1 construct: expressed in transfected cells; host or cells: HTLA cells

[2] = target: T2, 320 non-olfactory GPCRs (Homo sapiens, UniProt Q99705); details: receptor MCHR1R; replicate values, Fig_4g
T2 construct: expressed in transfected cells; host or cells: HTLA cells
T2 sequence (Q99705 whole entry): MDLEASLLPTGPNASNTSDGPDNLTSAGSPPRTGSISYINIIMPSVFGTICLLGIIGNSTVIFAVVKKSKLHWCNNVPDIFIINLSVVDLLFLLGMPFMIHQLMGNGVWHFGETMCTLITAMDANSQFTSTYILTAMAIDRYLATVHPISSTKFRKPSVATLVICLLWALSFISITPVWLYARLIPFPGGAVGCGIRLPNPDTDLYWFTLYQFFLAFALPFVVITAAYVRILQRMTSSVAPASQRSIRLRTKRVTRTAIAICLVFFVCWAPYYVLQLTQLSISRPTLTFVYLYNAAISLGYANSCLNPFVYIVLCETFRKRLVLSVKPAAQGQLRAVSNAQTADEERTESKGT

[3] = target: 320 non-olfactory GPCRs (Homo sapiens, UniProt P32238)
Sequence of 320 non-olfactory GPCRs (Homo sapiens, UniProt P32238) (P32238 whole entry): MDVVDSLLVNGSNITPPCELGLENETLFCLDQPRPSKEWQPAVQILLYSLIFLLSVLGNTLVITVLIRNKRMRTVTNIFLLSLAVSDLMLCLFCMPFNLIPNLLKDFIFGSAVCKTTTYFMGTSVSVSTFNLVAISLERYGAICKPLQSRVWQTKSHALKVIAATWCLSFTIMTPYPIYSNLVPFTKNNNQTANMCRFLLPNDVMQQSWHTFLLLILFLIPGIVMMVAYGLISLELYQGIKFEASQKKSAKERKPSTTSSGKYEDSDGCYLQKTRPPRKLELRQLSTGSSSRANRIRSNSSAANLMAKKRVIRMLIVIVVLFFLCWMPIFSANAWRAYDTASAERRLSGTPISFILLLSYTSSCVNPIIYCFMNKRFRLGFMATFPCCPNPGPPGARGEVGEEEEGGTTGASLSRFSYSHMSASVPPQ

[4] = target: T3, 320 non-olfactory GPCRs (Homo sapiens, UniProt Q8IZF3)
T3 construct: expressed in transfected cells; host or cells: HTLA cells
T3 sequence (Q8IZF3 22-695): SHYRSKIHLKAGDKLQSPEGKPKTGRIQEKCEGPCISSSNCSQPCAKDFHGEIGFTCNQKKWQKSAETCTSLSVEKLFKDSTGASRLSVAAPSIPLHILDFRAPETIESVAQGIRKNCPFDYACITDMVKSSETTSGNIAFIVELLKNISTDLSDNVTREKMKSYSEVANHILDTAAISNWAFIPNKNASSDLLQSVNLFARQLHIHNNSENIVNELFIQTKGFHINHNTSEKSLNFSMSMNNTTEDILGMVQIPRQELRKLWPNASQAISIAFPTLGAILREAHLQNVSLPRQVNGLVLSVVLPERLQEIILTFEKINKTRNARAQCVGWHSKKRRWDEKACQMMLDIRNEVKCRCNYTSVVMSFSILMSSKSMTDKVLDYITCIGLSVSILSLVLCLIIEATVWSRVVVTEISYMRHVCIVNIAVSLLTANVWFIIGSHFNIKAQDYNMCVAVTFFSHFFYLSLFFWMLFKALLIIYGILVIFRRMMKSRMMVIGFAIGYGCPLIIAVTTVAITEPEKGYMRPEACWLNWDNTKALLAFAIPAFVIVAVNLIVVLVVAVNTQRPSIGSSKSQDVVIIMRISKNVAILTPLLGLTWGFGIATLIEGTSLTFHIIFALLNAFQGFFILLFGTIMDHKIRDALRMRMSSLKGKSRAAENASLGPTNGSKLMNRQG
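Throughout, for Fold of Basal: compound tested at 1 µM final concentration.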
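Throughout, for GPCRome agonism screen response: fold over basal response of each receptor without drug.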

T1 sequence (P25089 whole entry): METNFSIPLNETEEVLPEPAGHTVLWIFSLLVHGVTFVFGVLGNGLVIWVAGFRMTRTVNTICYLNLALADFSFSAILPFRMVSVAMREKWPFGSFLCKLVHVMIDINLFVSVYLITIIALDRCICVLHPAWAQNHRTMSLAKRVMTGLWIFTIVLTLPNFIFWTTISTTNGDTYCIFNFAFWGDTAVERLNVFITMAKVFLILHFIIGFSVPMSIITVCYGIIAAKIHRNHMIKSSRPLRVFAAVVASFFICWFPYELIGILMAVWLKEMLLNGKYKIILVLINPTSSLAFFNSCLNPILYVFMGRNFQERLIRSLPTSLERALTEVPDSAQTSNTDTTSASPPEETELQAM

In the case of `CCOc1cccc2cc(C(C)NCC3(O)CCCCC3)oc12` (stereo not shown) [O4LE6], the “Fold of Basal” value [1] is reported as 1.168 and 1.052 and 1.054 and 1.032, the “GPCRome agonism screen response” value [2] is reported as 0.7534 and 1.295 and 1.833 and 1.448 and the “Fold of Basal” value [3] is reported as 0.8879 and 0.8535 and 0.8133 and 1.029. The “Fold of Basal” value [4] was 1.314 and 0.8065 and 0.6945.
